PMC6242907, “Molecular basis of maintaining an oxidizing environment under anaerobiosis by soluble fumarate reductase” (Nature Communications, 2018)

Tests used:
[1] = target: T1, Ero1 (Saccharomyces cerevisiae, UniProt Q03103); experiment: free flavin reduction at […] nm; assay type: biochemical; conditions: free FAD as electron acceptor; DTT and thioredoxin as reductant, airtight, oxygen-depleted
T1 construct: residues 56-424, His6-MBP fusion from E. coli Origami B(DE3), H6-MBP cleaved off by TEV protease; FAD-containing
T1 sequence (Q03103 56-424): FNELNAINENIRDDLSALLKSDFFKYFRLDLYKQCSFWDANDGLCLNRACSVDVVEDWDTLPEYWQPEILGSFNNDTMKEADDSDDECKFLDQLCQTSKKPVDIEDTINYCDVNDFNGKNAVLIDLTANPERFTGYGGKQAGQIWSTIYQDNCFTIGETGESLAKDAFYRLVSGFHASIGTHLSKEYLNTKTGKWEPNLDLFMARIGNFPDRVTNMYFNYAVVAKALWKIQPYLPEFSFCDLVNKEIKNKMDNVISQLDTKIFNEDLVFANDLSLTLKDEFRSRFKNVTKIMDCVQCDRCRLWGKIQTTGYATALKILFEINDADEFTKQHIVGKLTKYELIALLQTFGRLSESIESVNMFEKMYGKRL

[2] = target: T2, Osm1 (Saccharomyces cerevisiae, UniProt P21375); experiment: isothermal titration calorimetry; assay type: binding
T2 construct: residues 32-501, N-terminal His6 tag and thrombin site in pET28a, E. coli BL21(DE3); tag removed by trypsin for crystals
T2 sequence (P21375 32-501): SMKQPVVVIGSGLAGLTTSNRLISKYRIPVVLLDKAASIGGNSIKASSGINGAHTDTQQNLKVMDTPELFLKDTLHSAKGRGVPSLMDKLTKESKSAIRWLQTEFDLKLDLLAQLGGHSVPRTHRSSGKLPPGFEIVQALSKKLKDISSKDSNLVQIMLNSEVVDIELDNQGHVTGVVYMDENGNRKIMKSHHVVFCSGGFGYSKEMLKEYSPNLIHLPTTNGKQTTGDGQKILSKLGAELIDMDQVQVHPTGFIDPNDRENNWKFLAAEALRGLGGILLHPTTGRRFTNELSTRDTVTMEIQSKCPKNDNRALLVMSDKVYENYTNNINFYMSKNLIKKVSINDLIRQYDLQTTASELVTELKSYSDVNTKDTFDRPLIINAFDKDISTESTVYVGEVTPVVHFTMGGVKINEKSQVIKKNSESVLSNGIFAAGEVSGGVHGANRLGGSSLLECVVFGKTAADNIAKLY
Source text: isothermal titration calorimetry on Osm1 | Injection of FAD into the ITC sample cell containing holo-Osm1 created an exothermic response

[3] = target: T2, Osm1; experiment: X-ray crystal structure, […] Å; assay type: binding
[4] = target: T3, Osm1 (Saccharomyces cerevisiae, UniProt P21375, S78K/P162R); experiment: isothermal titration calorimetry; conditions: second FAD-binding pocket; 1 mM FAD injected into 28 µM double mutant
T3 construct: residues 32-501, N-terminal His6 tag and thrombin site in pET28a, E. coli BL21(DE3); tag removed by trypsin for crystals
T3 sequence (P21375 32-501 S78K/P162R): as the sequence (P21375 32-501) above, with S47K, P131R counted along it

Row | Structure (SMILES) | free flavin reduction at 450 nm [1] | Kd [2] [µM] | X-ray crystal structure, 1.8 Å ([3]; first (cofactor) site, non-covalent, complex with fumarate) | no detectable thermal response [4] | X-ray crystal structure, 1.8 Å ([3]; active site next to the isoalloxazine ring of cofactor FAD)
1 | Cc1cc2nc3c(=O)[nH]c(=O)nc-3n(C[C@H](O)[C@H](O)[C@H](O)COP(=O)(O)OP(=O)(O)OC[C@H]3O[C@@H](n4cnc5c(N)ncnc54)[C@H](O)[C@@H]3O)c2cc1C [FAD] | Ero1 could only use free FAD, but not FMN or riboflavin, under oxygen-depleted conditions | 4.92 | residues, including A45, K66, N73, S74, S79, G80, V194, D260, E467, S482, and L483 | injection of FAD into the S78K/P162R mutant did not show any detectable thermal response | 
2 | O=C(O)/C=C/C(=O)O [fumarate] |  |  |  |  | S78, S79, H281, R326, H435, R477, and G480 from Osm1 are involved in the binding of fumarate
